As usually defined, the IC50 is the concentration that gives 50% inhibition. A high value points to weaker potency.

From PMC5615050 (Scientific Reports, 2017) come the findings set out here.

The test deals with Bac-NA^H274Y H1N1 (Influenza A virus, UniProt P03470, H259Y). Nature of the test: biochemical.

The molecule `CC1OC(OC2CC(O)C3(CO)C4C(O)CC5(C)C(C6COC(O)C6)CCC5(O)C4CCC3(O)C2)C(O)C(O)C1O` (stereo not drawn) [BPR1P0003S0] displayed a 50% inhibitory concentration (IC50) of over 40 µM.

As to `CC12CCC(O)CC1CCC1C2CC(O)C2(C)C(C3=CC(=O)OC3)CCC12O` (stereo not drawn) [BPR1P0007S0], the half-inhibitory concentration (IC50) is over 40 µM. `CC12CCC(O)CC1CCC1C2CCC2(C)C(C3=CC(=O)OC3)CCC12O` (stereo not drawn) [BPR1P0008S0] gave an IC50 of over 40 µM.
